What all share (type): cell-based, human
The subject of one assay is NCI/ADR-RES cells. The assay is described as follows: SRB cytotoxicity assay in NCI/ADR-RES cells transfected with ABCB1 or mock siRNA. The conditions noted are these: for Fold reversal: mock vs ABCB1 siRNA; for effect of ABCB1 siRNA on chemosensitivity to the drug: result in words. The procedure: (§1) Human cancer cells were transfected with ABCB1, ABCB5 or mock siRNA. Drug activity was measured with the SRB assay. IC50 is the concentration that produced 50% inhibition of cell growth compared to controls. Results represent the mean of two or mean±SD of at least three independent experiments.
(§2) We next compared growth-inhibitory IC50 values of siRNA-treated to that of mock-treated cells using a sulforhodamine B (SRB) cell proliferation assay.
(§3) Cell lines, obtained from Division of Cancer Treatment and Diagnosis at NCI, were cultured in RPMI 1640 containing 10% heat-inactivated fetal calf serum in a 5% CO2 incubator at 37° C. Transfection was performed with TransMessenger Transfection Reagent (QIAGEN). To down-regulate ABCB1 or ABCB5, cancer cells were transfected with 0.3 or 0.6 μM siRNA. For RNA extraction, cells were harvested 48 hours after transfection.
(§4) Cytotoxicity assay. 5FU, Camptothecin, and Mitoxathone were obtained from Sigma. The other compounds were from Developmental Therapeutics Program at NCI. […] Anticancer drugs were added in a dilution series in 6 replicated wells. After 4 days, incubation was terminated by replacing the medium with 100 μl 10% trichloroacetic acid (Sigma, St. Louis, Mo.) in 1×PBS, followed by incubation at 4° C. for at least 1 hour. Subsequently, the plates were washed with water and air-dried. The plates were stained with 100 μl 0.4% SRB (Sigma) in 1% acetic acid for 30 min at room temperature. Unbound dye was washed off with 1% acetic acid. After air-drying and re-solubilization of the protein-bound dye in 10 mM Tris-HCl (pH 8.0), absorbance was read by a micro-plate reader at 570 nm. To determine the IC50 values, the absorbance of control cells without drug was set at 1. Dose-response curves were plotted using SigmaPlot software (RockWare, Golden, Colo.). Each experiment was performed independently at least three times.
On the technique in general: The SRB assay estimates cell density from bound dye.

The next assay deals with SK-MEL-28 cells. The assay is described as follows: SRB cytotoxicity assay in SK-MEL-28 cells transfected with ABCB5 or mock siRNA. The conditions noted are these: for IC50: 4 days drug, SRB; for Fold reversal: mock vs ABCB5 siRNA; for effect of ABCB5 siRNA on chemosensitivity to the drug: result in words. The procedure:
Human cancer cells were transfected with ABCB1, ABCB5 or mock siRNA. Drug activity was measured with the SRB assay. […] Results represent the mean of two or mean±SD of at least three independent experiments.
To identify suitable ABCB5 domains for siRNA-mediated gene silencing, siRNA duplexes against three target domains were synthesized and transfected into SK-MEL-28 cells.
Transfection was performed with TransMessenger Transfection Reagent (QIAGEN). To down-regulate ABCB1 or ABCB5, cancer cells were transfected with 0.3 or 0.6 μM siRNA. For RNA extraction, cells were harvested 48 hours after transfection.
as §4

In the next assay the test system is HCT-15 cells. The assay is described as follows: SRB cytotoxicity assay in HCT-15 cells transfected with ABCB1 or mock siRNA. The conditions noted are these: for Fold reversal: mock vs ABCB1 siRNA. The procedure:
as §1, §2, §3, §4

Setting [1] is: Homo sapiens, 96 h, NCI/ADR-RES cells, ABCB1 siRNA, 4 days drug, SRB, read-out: IC50 (μM) siRNA.
The mark [2] stands for this setting: Homo sapiens, 96 h, NCI/ADR-RES cells, mock siRNA, 4 days drug, SRB, read-out: IC50 (μM) Mock.
Where [3] appears, read: Homo sapiens, 96 h, ABCB5 siRNA, read-out: IC50 (μM) siRNA.
The mark [4] stands for this setting: Homo sapiens, 96 h, mock siRNA, read-out: IC50 (μM) Mock.
Where [5] appears, read: ABCB5 siRNA, read-out: IC50 (μM) siRNA.
Setting [6] is: mock siRNA, read-out: IC50 (μM) Mock.
Where [7] appears, read: Homo sapiens, 96 h, HCT-15 cells, ABCB1 siRNA, 4 days drug, SRB, read-out: IC50 (μM) siRNA.
[8] abbreviates: Homo sapiens, 96 h, HCT-15 cells, mock siRNA, 4 days drug, SRB, read-out: IC50 (μM) Mock.

The record followed here is patent publication US20050208512A1, “Determining the chemosensitivity of cells to cytotoxic agents” (The Ohio State University Research Foundation, priority 2003, published 2005).

“Also recorded” adds a separate entry of the source. Read-outs that look alike come from different tables or passages of the source. A value given as a limit tells only on which side of the number the result lay.

By IC50 is commonly meant the concentration that inhibits the measured activity by half. With `O=c1[nH]cc(F)c(=O)[nH]1` [5FU, fluorouracil], the IC50 in the assay on NCI/ADR-RES cells (setting [1]) was found to be 1000 µM; with NCI/ADR-RES cells (setting [2]) it was 900 µM; in the assay with SK-MEL-28 cells (setting [3]), 6.43 ± 2.67 µM; in the assay on SK-MEL-28 cells (setting [4]), 12.4 ± 4.6 µM. In addition, the Fold reversal in the assay on NCI/ADR-RES cells (NCI/ADR-RES cells) is reported as 0.90; with SK-MEL-28 cells it was 1.96 ± 0.16. In the assay on NCI/ADR-RES cells (NCI/ADR-RES cells), the “effect of ABCB1 siRNA on chemosensitivity to the drug” value was “unaffected; also recorded: no effect on potency”. The “effect of ABCB5 siRNA on chemosensitivity to the drug” value (“effect of ABCB5 siRNA” for short) in the assay with SK-MEL-28 cells is on record as “Enhanced chemosensitivity”.
Take `COc1cc(NS(C)(=O)=O)ccc1Nc1c2ccccc2nc2ccccc12` [AMSA]: the “effect of ABCB5 siRNA” value in the assay on SK-MEL-28 cells is listed as “no change in potency”.
In the case of `CCS(=O)(=O)O.CN(C)C(=O)c1cccc(COc2ccc(N3C(N)=NC(N)=NC3(C)C)cc2Cl)c1` [Baker's antifol, Baker's-soluble-antifol], the IC50 in the assay with NCI/ADR-RES cells (NCI/ADR-RES cells, ABCB1 siRNA, 4 days drug, SRB, read-out: IC50 (μM) siRNA) amounted to 131 ± 36.7 µM; with NCI/ADR-RES cells (NCI/ADR-RES cells, mock siRNA, 4 days drug, SRB, read-out: IC50 (μM) Mock) it was 420 ± 120 µM; with HCT-15 cells (HCT-15 cells, ABCB1 siRNA, 4 days drug, SRB, read-out: IC50 (μM) siRNA), 33.7 ± 6.23 µM; in the assay with HCT-15 cells (HCT-15 cells, mock siRNA, 4 days drug, SRB, read-out: IC50 (μM) Mock) it was 48.2 ± 5.18 µM. The Fold reversal is reported as 3.23 ± 0.45 in the assay on NCI/ADR-RES cells (NCI/ADR-RES cells) and 1.47 ± 0.29 in the assay on HCT-15 cells (HCT-15 cells).
On to `C(=N\NC1=NCCN1)/c1c2ccccc2c(/C=N/NC2=NCCN2)c2ccccc12` [Bisantrene], for which the IC50 in the assay on NCI/ADR-RES cells (Homo sapiens, NCI/ADR-RES, 96 h, read-out: IC50 (μM) Mock) was over 100 µM; in the assay on NCI/ADR-RES cells (Homo sapiens, NCI/ADR-RES, 96 h, read-out: IC50 (μM) siRNA), 23.7 µM; with HCT-15 cells (Homo sapiens, HCT-15, 96 h, read-out: IC50 (μM) Mock), 7.63 µM; with HCT-15 cells (Homo sapiens, HCT-15, 96 h, read-out: IC50 (μM) siRNA), 5.47 µM. Moreover, the Fold reversal is on record as over 4.22 in the assay with NCI/ADR-RES cells (NCI/ADR-RES cells) and 1.39 in the assay on HCT-15 cells (HCT-15 cells).
Turning to `CC[C@@]1(O)C(=O)OCc2c1cc1n(c2=O)Cc2cc3cc(O)ccc3nc2-1` [CPT,10-OH], the results for the IC50 with SK-MEL-28 cells (setting [5]) and in the assay with SK-MEL-28 cells (setting [6]) were 0.14 ± 0.02 µM and 0.48 ± 0.12 µM, respectively. Moreover, in the assay on SK-MEL-28 cells, the Fold reversal turned out to be 3.62 ± 1.35. For the same compound, the “effect of ABCB5 siRNA” value in the assay with SK-MEL-28 cells is listed as “Enhanced chemosensitivity”.
For `CC[C@@]1(O)C(=O)OCc2c1cc1n(c2=O)Cc2cc3ccccc3nc2-1` [Camptothecin], the figures for the IC50 in the assay with SK-MEL-28 cells (setting [3]) and with SK-MEL-28 cells (setting [4]) were 0.06 µM and 0.13 µM, respectively. For the same compound, in the assay on SK-MEL-28 cells, the Fold reversal came to 2.17.
Consider `COC1=C2C[C@@H](C)C[C@H](OC)[C@H](O)[C@@H](C)/C=C(\C)[C@H](OC(N)=O)[C@@H](OC)/C=C\C=C(/C)C(=O)NC(=CC1=O)C2=O` [Geldanamycin, geldanamycin], for which the IC50 is 3.6 ± 0.6 µM in the assay on NCI/ADR-RES cells (setting [1]), 6.84 ± 1.08 µM in the assay on NCI/ADR-RES cells (setting [2]), 8.2 ± 3.88 µM with HCT-15 cells (setting [7]) and 9.91 ± 3.96 µM in the assay on HCT-15 cells (setting [8]). Moreover, the Fold reversal in the assay with NCI/ADR-RES cells (NCI/ADR-RES cells) was found to be 1.95 ± 0.45; in the assay on HCT-15 cells (HCT-15 cells), 1.26 ± 0.14.
For `O=C1c2c(O)ccc(O)c2C(=O)c2c(NCCNCCO)ccc(NCCNCCO)c21` [Mitoxathone], the results for the concentration for half-maximal inhibition (IC50) with SK-MEL-28 cells (setting [5]) and in the assay on SK-MEL-28 cells (setting [6]) were 0.79 µM and 1.08 µM, respectively. The Fold reversal in the assay on SK-MEL-28 cells worked out at 1.37. Besides, the “effect of ABCB5 siRNA” value in the assay on SK-MEL-28 cells is “no change in potency; also recorded: no effect on potency”.
For the compound `CC(=O)O[C@H]1C(=O)[C@@]2(C)[C@H]([C@H](OC(=O)c3ccccc3)[C@]3(O)C[C@H](OC(=O)[C@H](O)[C@@H](NC(=O)c4ccccc4)c4ccccc4)C(C)=C1C3(C)C)[C@]1(OC(C)=O)CO[C@@H]1C[C@@H]2O` [Palitaxel, Paclitaxel], the IC50 in the assay on NCI/ADR-RES cells (setting [1]) stood at 1.06 µM; in the assay with NCI/ADR-RES cells (setting [2]), 8.01 µM; in the assay on HCT-15 cells (setting [7]), 0.18 µM; in the assay on HCT-15 cells (setting [8]), 0.31 µM. In addition, the Fold reversal with NCI/ADR-RES cells (NCI/ADR-RES cells) is reported as 7.57; with HCT-15 cells (HCT-15 cells), 1.72. For the same compound, in the assay with NCI/ADR-RES cells (NCI/ADR-RES cells), the “effect of ABCB1 siRNA on chemosensitivity to the drug” value is listed as “Enhanced chemosensitivity”.
